Assay results as given in patent publication US10195156B2, “Compounds and compositions for intracellular delivery of agents” (ModernaTX, Inc., priority 2015, dated 2019).

Columns and labels:
[1] = Particle size and polydispersity index of nanoparticle compositions (Zetasizer Nano ZS); assay type: physicochemical; settings: for particle size, rank within the named table (in words): comparison amongst compositions
Procedure, shortened: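 In 1×PBS, the compositions were sized on a Zetasizer Nano ZS, which also reported their polydispersity index.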

[2] = Encapsulation efficiency of RNA (QUANT-IT RIBOGREEN RNA assay); assay type: physicochemical; settings: for encapsulation efficiency, rank within the named table (in words): comparison amongst compositions
Procedure, shortened: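 Nanoparticle samples diluted to ~5 μg/mL RNA in TE buffer (pH 7.5), incubated with or without 2% Triton X-100 solution at 37 °C for 15 min, then RiboGreen added. Fluorescence read at ~480/520 nm, blank-subtracted; free RNA % = intact over Triton-disrupted signal.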

[3] = pKa of nanoparticle compositions; assay type: physicochemical
[4] = tested on: luciferase (Luc) mRNA expression; test: Expression of Luc induced by sample formulations, whole-body bioluminescence after intravenous administration; assay type: in vivo; settings: mice, i.v., 0.5 mg/kg
Procedure, shortened: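 Mice (n=6) dosed intravenously with Luc mRNA nanoparticle formulations at 0.5 mg/kg. Whole-body bioluminescence measured at 3, 6 and 24 h. Standard MC3 formulation and PBS control run alongside.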

[5] = tested on: modified luciferase expression; test: Expression of Luc in different organs (liver, lung, spleen, femur) 6 hours after intravenous administration; assay type: in vivo; settings: i.v., 0.5 mpk
Description: The efficacy of the nanoparticle compositions presented in Tables 1, 1a, 17-1, 19-1, 20-1 and 21-1 was further evaluated by measuring the expression of modified luciferase in the liver, lung, spleen, and femur upon administration of a given composition. Formulations were administered intravenously to mice (n=3) at a dosage of 0.5 mpk and bioluminescence measured after 6 hours. The standard MC3 formulation and a PBS control were also tested.

IL-6 = test: Cytokine production induced by sample formulations: IL-6; assay type: in vivo; settings: mice, i.v., 0.5 mpk, 6 hours; for IL-6: in pg/mL (unit assumed)
Procedure, shortened: (§1)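 Mice received nanoparticle formulations intravenously at 0.5 mpk, with standard MC3 formulation and PBS as controls. Cytokine concentrations were measured 6 hours after dosing.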

IP-10 = test: Cytokine production induced by sample formulations: IP-10; assay type: in vivo; settings: mice, i.v., 0.5 mpk, 6 hours; for IP-10: in pg/mL (unit assumed)
Procedure, shortened: as §1

[6] = Table 1, rows without footnote mark
[7] = Table 1, rows without footnote mark (lipid:DOPE:cholesterol:PEG-DMG 40:20:38.5:1.5, Luc mRNA; MC3 standard formulation)

SMILES	PDI [1, 6]	Size (nm) [1, 7] [nm]	EE (%) [2, 6] [%]	pKa [3, 6]	Total Flux 3 hours ([4]; Table 2)	Total Flux 6 hours ([4]; Table 2)	Total Flux 24 hours ([4]; Table 2)	Total Flux Liver ([5]; Table 3, mice)	Total Flux Lung ([5]; Table 3, mice)	Total Flux Spleen ([5]; Table 3, mice)	IL-6 (IL-6; Table 4)	IP-10 (IP-10; Table 4)	particle size, rank within the named table (in words) [1]	encapsulation efficiency, rank within the named table (in words) [2]	IL-6 induction, rank within the named table (in words) (IL-6)	IP-10 induction, rank or comparison with IL-6 (in words) (IP-10)	other results
CCCCC/C=C\C/C=C\CCCCCCCCN(CCCCCCCCCCCC)CCN1CCN(CCN(CCCCCCCCCCCC)CCN(CCCCCCCCCCCC)CCCCCCCCCCCC)CC1 [Compound 27, N^1,N^1,N^2-Tridodecyl-N^2-(2-(4-(2-(dodecyl((9Z,12Z)-octadeca-9,12-dien-1-yl)amino)ethyl)piperazin-1-yl)ethyl)ethane-1,2-diamine]	0.211	86.4	97.9	6.14	4.56E+09	4.70E+09	1.36E+08	7.84E+08	3.56E+06	3.34E+06	42	2564					
CCCCC/C=C\C/C=C\CCCCCCCCN(CCCCCCCC/C=C\C/C=C\CCCCC)CCN1CCN(CCCCCCCCCCCC)CC1 [Compound 19-6, (9Z,12Z)—N-(2-(4-Dodecylpiperazin-1-yl)ethyl)-N-((9Z,12Z)-octadeca-9,12-dien-1-yl)octadeca-9,12-dien-1-amine]													largest particles	lowest encapsulation efficiency	highest IL-6 expression	highest IP-10 expression	PDI ([1]; Table 19-1): 0.088; Size (nm) ([1]; Table 19-1): 137.7 nm; EE (%) ([2]; Table 19-1): 16.9%; pKa ([3]; Table 19-1): 5.89; Total Flux 3 hours ([4]; Table 19-2): 1.07E+07; Total Flux 6 hours ([4]; Table 19-2): 1.27E+07; Total Flux 24 hours ([4]; Table 19-2): 1.29E+06; total flux / Luc expression, rank within the named table (in words) ([4]; each time point): next highest flux; Total Flux Liver ([5]; Table 19-3, mice): 3.27E+06; Total Flux Lung ([5]; Table 19-3, mice): 1.81E+05; Total Flux Spleen ([5]; Table 19-3, mice): 3.47E+06; IL-6 (IL-6; Table 19-4): 7571; IP-10 (IP-10; Table 19-4): 433
CCCCC/C=C\C/C=C\CCCCCCCCN(CCO)CCCCCC [Compound 17-2, 2-(Hexyl((9Z,12Z)-octadeca-9,12-dien-1-yl)amino)ethan-1-ol]													largest particles	did not encapsulate RNA with high efficiency	lowest IL-6 levels	lowest IP-10 levels	PDI ([1]; Table 17-1): 0.104; Size (nm) ([1]; Table 17-1): 136.9 nm; EE (%) ([2]; Table 17-1): 57.2%; pKa ([3]; Table 17-1): 6.92; Total Flux 3 hours ([4]; Table 17-2): 2.83E+05; Total Flux 6 hours ([4]; Table 17-2): 3.76E+05; Total Flux 24 hours ([4]; Table 17-2): 2.64E+05; Total Flux Liver ([5]; Table 17-3, mice): 6.42E+04; Total Flux Lung ([5]; Table 17-3, mice): 1.96E+04; Total Flux Spleen ([5]; Table 17-3, mice): 4.16E+04; IL-6 (IL-6; Table 17-4): 9.88; IP-10 (IP-10; Table 17-4): 72.8
CCCCC/C=C\CCCCCN(CCCCC/C=C\CCCCC)CCN1CCN(CCN(CCCCCCCCCCCC)CCN(CCCCCCCCCCCC)CCCCCCCCCCCC)CC1 [Compound 25, N^1-(2-(4-(2-(Di((Z)-dodec-6-en-1-yl)amino)ethyl)piperazin-1-yl)ethyl)-N^1,N^2,N^2-tridodecylethane-1,2-diamine]	0.186	90.0	97.0	6.20	1.06E+10	1.08E+10	2.72E+08	2.68E+09	5.88E+06	6.00E+06	131	1823					
